Measurements reported in article PMC8161015, “Antiplatelet Activity of Coumarins: In Vitro Assays on COX-1” (Molecules, 2021).

Target: T1, COX-1 (Homo sapiens, UniProt P23219)
T1 construct: gene PTGS1; pure human recombinant enzyme (h-COX-1)
Experiment: colorimetric TMPD oxidation assay with purified human COX-1, arachidonic acid substrate
Assay type: biochemical

T1 sequence (P23219 24-599): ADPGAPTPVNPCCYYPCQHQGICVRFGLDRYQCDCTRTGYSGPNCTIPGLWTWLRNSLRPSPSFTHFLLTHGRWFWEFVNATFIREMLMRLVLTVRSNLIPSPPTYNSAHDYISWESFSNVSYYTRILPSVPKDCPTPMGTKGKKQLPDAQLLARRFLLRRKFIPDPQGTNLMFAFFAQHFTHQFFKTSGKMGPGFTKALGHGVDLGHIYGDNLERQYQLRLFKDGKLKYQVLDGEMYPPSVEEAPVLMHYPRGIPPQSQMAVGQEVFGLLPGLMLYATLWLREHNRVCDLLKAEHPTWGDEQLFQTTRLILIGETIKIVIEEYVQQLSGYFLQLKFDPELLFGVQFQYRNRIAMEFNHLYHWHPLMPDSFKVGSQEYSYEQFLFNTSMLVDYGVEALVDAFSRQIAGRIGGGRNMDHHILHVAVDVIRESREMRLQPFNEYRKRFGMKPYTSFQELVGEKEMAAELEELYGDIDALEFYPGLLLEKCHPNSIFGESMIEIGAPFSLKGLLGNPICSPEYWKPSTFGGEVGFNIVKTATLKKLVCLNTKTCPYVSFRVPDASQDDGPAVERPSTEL

`O=c1ccc2cc(O[C@@H]3O[C@H](CO)[C@@H](O)[C@H](O)[C@H]3O)c(O)cc2o1` [a, 7-hydroxy-6-[(2 S, 3 R, 4 S, 5 S, 6 R)-3,4,5-trihydroxy-6-(hydroxymethyl)oxane-2-yl] oxychromen-2-one] showed an IC50 of 4.49 mM.
